Data as given in patent publication US20110245159A1, “Salts, Solvates and Pharmaceutical Compositions of Macrocyclic Ghrelin Receptor Agonists and Methods of Using the Same” (priority 2009, published 2011).

How the values were obtained:
[1] = Dynamic vapor sorption/desorption (DVS) hygroscopicity; format: physicochemical
Protocol: The hygroscopicity of salts, solvates and polymorphs of the invention can be assessed by both static and dynamic hygroscopicity studies. For the latter, dynamic vapor sorption/desorption (DVS) experiments can be performed on an SGA-100 gravimetric sorption analyzer (or similar). The experimental protocol typically included full weight equilibrium at 0% RH.
The hygroscopicity of compound 298.HCl.H2O was assessed by both static and dynamic vapor sorption/desorption (DVS) experiments were performed at 25° C. according to Method 4M.

[2] = Stability testing of compound 298.HCl.H2O at storage conditions; format: physicochemical
Text: For determining the stability of an active pharmaceutical ingredient (API) or a pharmaceutical composition, the approach as outlined for regulatory purposes in International Conference on Harmonisation of Technical Requirements for Registration of Pharmaceuticals for Human Use (ICH) Q1A Guideline: Stability Testing of New Drug Substances and Products, February 2003, can be followed. In summary, this entails repetition of certain analytical tests on samples stored at three representative controlled conditions to ascertain whether or not any degradation or loss of potency has occurred. The typical conditions employed are: (1) 25° C.±2° C., 60%±5% relative humidity (RH); (2) 30° C.±2° C., 65%±5% RH; (3) 40° C.±2° C., 75%±5% RH (often termed accelerated stability). The photostability as outlined in International Conference on Harmonisation of Technical Requirements for Registration of Pharmaceuticals for Human Use (ICH) Q1B Guideline: Stability Testing: Photostability Testing of New Drug Substances and Products, November 1996, is typically also investigated.
The purpose of this procedure is to determine the purity of representative salts, solvates and polymorphs of the invention by reverse phase HPLC. Any appropriate detection method compatible with HPLC can be utilized, such as single or dual wavelength ultraviolet (UV) detection, evaporative light scattering detection (ELSD) or chemiluminescent nitrogen detection (CLND). For most cases, UV detection would be preferred. Purity can be determined by peak area %. The same assay conditions are used to determine the level of impurities and the potency. The parameters for this HPLC assay are delineated below.
Moisture level is determined by Karl Fischer titrimetry using the direct titration method, in accordance with USP <921 1a>.

[3] = Static hygroscopicity study; format: physicochemical; conditions: 3 months, 80% RH, 25° C.
Protocol: The static hygroscopicity study was performed by exposing compound 298.HCl.H2O for a period of 3 months to 80% RH humidity at 25° C. […] The sample was analyzed at 1-week, 1-month, 2-month and 3-month time points by the following methods: DSC, thermogravimetric analysis and Karl-Fischer titrimetry.

[4] = rat, in vivo, sc
Protocol: Formulations A, B-1, B-2 and B-3 were administered to male Sprague-Dawley rats subcutaneously (sc) at a dosing volume of 5 mL/kg.
Blood was collected via the JVC into tubes containing sodium EDTA (NaEDTA) and placed on ice until centrifugation. Samples were centrifuged at 13,000 rpm for 5 min with the temperature maintained at 4° C. Plasma was separated and stored frozen on dry ice prior to analysis.
The pharmacokinetic (PK) parameters for each animal were calculated using non-compartmental modeling (extravascular input model) and WinNonlin software (version 5.2, Pharsight). The half-life (t1/2), Area Under the Concentration Versus Time Curve from time 0 to the last quantifiable point (AUC0-t) and to infinity (AUC0-∞) were calculated and the observed Cmax and Tmax tabulated for each animal and dose group. […] The terminal elimination rate constant was calculated for the purpose of obtaining the extrapolated AUC0-∞ values.

POI = conditions: unspecified formulation; cited from earlier work
diabetic gastroparesis = conditions: unspecified formulation; cited from earlier work
[5] = humans, unspecified formulation; cited from earlier work
GH secretion = conditions: animal models; cited from earlier work
[6] = Solubility of compound 298 salts, HPLC-CLND; conditions: 20 mg compound 298 + 0.5 mL aqueous acid (1.1 eq), agitated 72 h
Protocol: The pH of the solution was then measured and the amount of dissolved salt determined by HPLC-CLND analysis.

[7] = Batch 1, 25° C., 60% RH, 12 mos
[8] = Batch 1, 25° C., 60% RH, 18 mos
[9] = Batch 1, 25° C., 60% RH, 24 mos
[10] = Example 3, 25° C., 60% RH, 0 mos
[11] = Example 3, 25° C., 60% RH, 3 mos
[12] = Example 3, 25° C., 60% RH, 6 mos
[13] = Example 3, 25° C., 60% RH, 9 mos
[14] = Example 3, 25° C., 60% RH, 12 mos
[15] = Example 3, 25° C., 60% RH, 18 mos
[16] = Example 3, 40° C., 75% RH, 0 mos
[17] = Example 3, 40° C., 75% RH, 1 mos
[18] = Example 3, 40° C., 75% RH, 3 mos
[19] = Example 3, 40° C., 75% RH, 6 mos

Compound: CC1CNC(C2CC2)C(=O)N(C)C(C)C(=O)NC(Cc2ccc(F)cc2)C(=O)NCCCc2ccccc2O1.Cl.O (stereo not drawn) [Compound 298•HCl•H2O]
- Hygroscopicity [1]: Non-hygroscopic
- Hygroscopicity ([1]; DVS, 25° C.): essentially non-hygroscopic
- Weight change ([1]; DVS, 25° C., 20%-90% relative humidity range): 1%
- Weight loss (lattice water lost) ([1]; DVS, 25° C., equilibration at 0% RH): 2.6%
- HPLC Assay (% Purity) ([2]; Batch 1, 5° C., 0 mos): 100.48%
- Total Impurities (%) ([2]; Batch 1, 5° C., 0 mos): 0.41%
- HPLC Assay (% Purity) ([2]; Batch 1, 5° C., 3 mos): 98.72%
- Total Impurities (%) ([2]; Batch 1, 5° C., 3 mos): 0.39%
- HPLC Assay (% Purity) ([2]; Batch 1, 5° C., 6 mos): 98.48%
- Total Impurities (%) ([2]; Batch 1, 5° C., 6 mos): 0.42%
- HPLC Assay (% Purity) ([2]; Batch 1, 5° C., 9 mos): 100.78%
- Total Impurities (%) ([2]; Batch 1, 5° C., 9 mos): 0.47%
- HPLC Assay (% Purity) ([2]; Batch 1, 5° C., 12 mos): 98.19%
- Total Impurities (%) ([2]; Batch 1, 5° C., 12 mos): 0.42%
- HPLC Assay (% Purity) ([2]; Batch 1, 5° C., 18 mos): 98.68%
- Total Impurities (%) ([2]; Batch 1, 5° C., 18 mos): 0.43%
- HPLC Assay (% Purity) ([2]; Batch 1, 5° C., 24 mos): 100.15%
- Total Impurities (%) ([2]; Batch 1, 5° C., 24 mos): 0.43%
- HPLC Assay (% Purity) ([2]; Batch 1, 25° C., 60% RH, 0 mos): 100.48%
- Total Impurities (%) ([2]; Batch 1, 25° C., 60% RH, 0 mos): 0.41%
- HPLC Assay (% Purity) ([2]; Batch 1, 25° C., 60% RH, 1 mos): 98.99%
- Total Impurities (%) ([2]; Batch 1, 25° C., 60% RH, 1 mos): 0.40%
- HPLC Assay (% Purity) ([2]; Batch 1, 25° C., 60% RH, 3 mos): 98.39%
- Total Impurities (%) ([2]; Batch 1, 25° C., 60% RH, 3 mos): 0.40%
- HPLC Assay (% Purity) ([2]; Batch 1, 25° C., 60% RH, 6 mos): 98.81%
- Total Impurities (%) ([2]; Batch 1, 25° C., 60% RH, 6 mos): 0.42%
- HPLC Assay (% Purity) ([2]; Batch 1, 25° C., 60% RH, 9 mos): 100.65%
- Total Impurities (%) ([2]; Batch 1, 25° C., 60% RH, 9 mos): 0.46%
- HPLC Assay (% Purity) [2, 7]: 97.59%
- Total Impurities (%) [2, 7]: 0.49%
- HPLC Assay (% Purity) [2, 8]: 99.81%
- Total Impurities (%) [2, 8]: 0.21%
- HPLC Assay (% Purity) [2, 9]: 100.24%
- Total Impurities (%) [2, 9]: 0.48%
- HPLC Assay (% Purity) ([2]; Batch 1, 40° C., 75% RH, 0 mos): 100.48%
- Total Impurities (%) ([2]; Batch 1, 40° C., 75% RH, 0 mos): 0.41%
- HPLC Assay (% Purity) ([2]; Batch 1, 40° C., 75% RH, 1 mos): 98.49%
- Total Impurities (%) ([2]; Batch 1, 40° C., 75% RH, 1 mos): 0.39%
- HPLC Assay (% Purity) ([2]; Batch 1, 40° C., 75% RH, 3 mos): 98.22%
- Total Impurities (%) ([2]; Batch 1, 40° C., 75% RH, 3 mos): 0.40%
- HPLC Assay (% Purity) ([2]; Batch 1, 40° C., 75% RH, 6 mos): 98.41%
- Total Impurities (%) ([2]; Batch 1, 40° C., 75% RH, 6 mos): 0.44%
- HPLC Assay (% Purity) [2, 10]: 99.9%
- Potency Assay (HPLC wt %) [2, 10]: 89.1 wt %
- Total Impurities (%) [2, 10]: 0.06%
- Water Content (%) [2, 10]: 3.9%
- HPLC Assay (% Purity) [2, 11]: 99.9%
- Potency Assay (HPLC wt %) [2, 11]: 90.2 wt %
- Total Impurities (%) [2, 11]: 0.12%
- Water Content (%) [2, 11]: 4.2%
- HPLC Assay (% Purity) [2, 12]: 99.9%
- Potency Assay (HPLC wt %) [2, 12]: 90.1 wt %
- Total Impurities (%) [2, 12]: 0.07%
- Water Content (%) [2, 12]: 4.1%
- HPLC Assay (% Purity) [2, 13]: 99.9%
- Potency Assay (HPLC wt %) [2, 13]: 90.5 wt %
- Total Impurities (%) [2, 13]: 0.06%
- Water Content (%) [2, 13]: 4.3%
- HPLC Assay (% Purity) [2, 14]: 99.9%
- Potency Assay (HPLC wt %) [2, 14]: 89.9 wt %
- Total Impurities (%) [2, 14]: 0.06%
- Water Content (%) [2, 14]: 3.1%
- HPLC Assay (% Purity) [2, 15]: 99.8%
- Potency Assay (HPLC wt %) [2, 15]: 89.8 wt %
- Total Impurities (%) [2, 15]: 0.07%
- Water Content (%) [2, 15]: 4.0%
- HPLC Assay (% Purity) [2, 16]: 99.9%
- Potency Assay (HPLC wt %) [2, 16]: 89.1 wt %
- Total Impurities (%) [2, 16]: 0.06%
- Water Content (%) [2, 16]: 3.9%
- HPLC Assay (% Purity) [2, 17]: 99.8%
- Potency Assay (HPLC wt %) [2, 17]: 88.4 wt %
- Total Impurities (%) [2, 17]: 0.18%
- Water Content (%) [2, 17]: 3.5%
- HPLC Assay (% Purity) [2, 18]: 99.9%
- Potency Assay (HPLC wt %) [2, 18]: 92.1 wt %
- Total Impurities (%) [2, 18]: 0.12%
- Water Content (%) [2, 18]: 3.7%
- HPLC Assay (% Purity) [2, 19]: 99.9%
- Potency Assay (HPLC wt %) [2, 19]: 89.6 wt %
- Total Impurities (%) [2, 19]: 0.07%
- Water Content (%) [2, 19]: 4.2%
- XRPD analysis ([2]; Example 3, both storage conditions after 6 months): still consistent with the standard pattern
- Appearance as a white powder ([2]; Example 3, over the 6 month period): remained unchanged
- Deliquescence [3]: No deliquescence was detected
- Hygroscopicity ([3]; static study): essentially non-hygroscopic
- AUC0-∞ dependence on dose [4]: increased proportionally with dose
- Increase in Cmax with dose [4]: less than dose-proportional

Compound: C[C@@H]1CN[C@@H](C2CC2)C(=O)N(C)[C@H](C)C(=O)N[C@H](Cc2ccc(F)cc2)C(=O)NCCCc2ccccc2O1 [compound 298]
- Efficacy for the treatment of POI (POI): efficacy
- Efficacy for the treatment of diabetic gastroparesis (diabetic gastroparesis): efficacy
- Safety and pharmacokinetic properties [5]: appropriate safety and pharmacokinetic properties
- Concurrent GH secretion (GH secretion): did not stimulate concurrent GH secretion

Compound: Fumarate
- pH at 72 hr [6]: 3.6
